Measured values published in US20250360162A1, “Naphthoic Acid-Derived Polymers as Antimicrobial Agents” (UNIVERSITY OF SOUTH CAROLINA, priority 2024, published 2025).

Legend:
[1] = test system: MDR-P. aeruginosa biofilm; assay: Biofilm eradication, confocal fluorescence microscopy (SYTO 9/PI, Z-stack); format: cell-based, Pseudomonas aeruginosa
Procedure: (§1) 18 mm glass coverslips were sterilized with flame after rinsing with ethanol. The bacterial biofilms were grown by following the previously published protocol. After the preparation of mid-log grown MDR-P. aeruginosa bacteria in TSB media, bacteria concentration was adjusted in NB with 1% (w/v) glucose and 1% (w/v) NaCl supplements to ˜10^5 CFU/mL. 2 mL of the diluted bacterial cell culture was used to fill the 6-well plate and 18 mm sterilized glass coverslips were added to each well. The plate was incubated at 37° C. for 72 h. After 72 h, 1×PBS (pH=7.4) was used to wash away unadhered planktonic bacteria. The carefully washed coverslips containing surface-attached biofilms were placed into a new 6-well sterile plate. Later, various concentration of 1-QAC-Hex (2 mL) was added into the wells and incubated for 24 h. Polymyxin-B was used as a control antibiotic. As a negative control, 2 mL of media was added without compound. The following three experiments were adjusted in the further steps as follows.
Coverslips were washed with 1×PBS and left to dry for 2 min. MDR-P. aeruginosa biofilm was simultaneously stained with equal volumes of (5 μL) SYTO 9 (60 μM) and PI (15 μM) and was placed on the slide immediately followed by incubation in darkness for 15 min. The glass coverslips images on the slide were captured with a Zeiss LSM 410 Confocal Laser Scanning Microscope in 40× magnification. […]

[2] = test system: MDR-P. aeruginosa; assay: Resistance development study, serial passaging at sub-MIC; format: cell-based, Pseudomonas aeruginosa; settings: 14 passages over 2 weeks
Procedure: (§2) The resistance development study was performed following the protocol published earlier. […] To compare the result, the last-resort gram-negative antibiotics, Polymyxin-B, and carbapenem type, Imipenem, were used in the study. According to the protocol elaborated for the MIC assay above, the MIC values of compounds and antibiotics were determined against corresponding bacteria overnight. The next day, a new MIC assay was performed where the bacterial suspension was prepared from the bacteria grown at the sub-MIC (MIC/2) of compound concentration of the first-day experiment. The next 14 continuous passages were repeated as described above. The resistance development was calculated as the fold increase of MIC by dividing MIC to the initial MIC values of every passage and then plotted against the passage number. These experiments were performed in triplicate.
(§3) MDR bacteria employ various strategies inherently or adaptively to build up resistance, which becomes a serious health concern. […] Bacteria were exposed to continuous serial passaging at the sub-MIC level over 2 weeks. Antibiotics imipenem and polymyxin-B were used as controls.

[3] = test system: MDR-P. aeruginosa biofilm; assay: Biofilm eradication, quantification through bacterial cell viability; format: cell-based, Pseudomonas aeruginosa; settings: 16×MIC
Procedure: as §1
Once again, coverslips were washed with 1×PBS and transferred to another new, sterile plate. Afterward, 2 mL of trypsin-EDTA solution (diluted in saline at a 1:10 ratio) was added to each well and incubated for 15 min. Samples of 20 μL of each concentration were then 10-fold serially diluted in 1×PBS. […]

[4] = test system: MDR-K. pneumoniae; assay: Resistance development study, serial passaging at sub-MIC; format: cell-based, Klebsiella pneumoniae; settings: 14 passages over 2 weeks
Procedure: as §2, §3

[5] = test system: mouse red blood cells (RBCs)
Excerpt: Hemolysis was given as HC50 where the concentration of a polymer causes 50% lysis of RBCs. […] RBC in PBS was used as the negative control to subtract any background signals.

| Compound | thickness of biofilm ([1]; 16×MIC, control 9.96 μm) [μm] | live/dead cells in biofilm after treatment ([1]; polymyxin-B 16×MIC, 3-QAC-Hex 16×MIC and 32×MIC) | change in MIC after serial passaging [2] [fold] | killing of viable bacteria within the biofilm, in words [3] | change in MIC after serial passaging [4] [fold] | lysis of RBCs [5] [%] |
| --- | --- | --- | --- | --- | --- | --- |
| polymyxin-B | 9.03 | a large amount of live cells | 8 | unable to kill the viable bacteria protected within the biofilm | 16 | – |
| Triton-X 100 | – | – | – | – | – | 100 |
| C[C@@H](O)[C@H]1C(=O)N2C(C(=O)O)=C(SCCN=CN)C[C@H]12 [imipenem] | – | – | 16 | – | 16 | – |
